Results reported in BindingDB's records for patent WO2022104348 (Janssen Pharmaceutica, 2022).

Biological target: Mitogen-activated protein kinase kinase kinase 14 (Homo sapiens, UniProt Q99558)
Assay: Inhibition of auto-phosphorylation of recombinant human NF-kappaB-inducing kinase (NIK/MAP3K14) activity
Procedure: NIK/MAP3K14 auto-phosphorylation activity was measured using the AlphaScreen (ascreen) format (Perkin Elmer). All compound6 tested were dissolved in dimethyl sulfoxide (DMSO) and further dilutions were made in assay buffer. The final DMSO concentration was 0.7% (v/v) in assays. The assay buffer was 50 mM Tris pH 7.5 containing 1 mM EGTA (ethylene glycol tetraacetic acid), 1 mM DTT (dithiothreitol), 0.1 mM NasVCO4, 5 mM MgCE, and 0.01 % Tween 20. The assays were carried out in 384 well Proxiplates (Perkin Elmer). The incubations consisted of the compound, […] Adenosine-5'-triphosphate (ATP), and 1 nM NIK/MAP3K14. Incubations were initiated by the addition of GST-tagged NIK/MAP3K14 enzyme, carried out for 2 h at 25 °C and terminated by addition of stop buffer containing anti-phospho-IKK Ser176/180 antibody. Protein A Acceptor and Glutathione-Donor bead6 were added before reading using an EnVision Multilabel Plate Reader (Perkin Elmer). The signal obtained in the wells was normalized using high (full enzyme activity, 0.7% DMSO) and low controls (no enzyme activity, 0.7% DMSO, no ATP). IC50 s were determined by fitting a sigmoidal curve to % inhibition of control versus Log compound concentration.

Mitogen-activated protein kinase kinase kinase 14, sequence (Q99558 whole entry): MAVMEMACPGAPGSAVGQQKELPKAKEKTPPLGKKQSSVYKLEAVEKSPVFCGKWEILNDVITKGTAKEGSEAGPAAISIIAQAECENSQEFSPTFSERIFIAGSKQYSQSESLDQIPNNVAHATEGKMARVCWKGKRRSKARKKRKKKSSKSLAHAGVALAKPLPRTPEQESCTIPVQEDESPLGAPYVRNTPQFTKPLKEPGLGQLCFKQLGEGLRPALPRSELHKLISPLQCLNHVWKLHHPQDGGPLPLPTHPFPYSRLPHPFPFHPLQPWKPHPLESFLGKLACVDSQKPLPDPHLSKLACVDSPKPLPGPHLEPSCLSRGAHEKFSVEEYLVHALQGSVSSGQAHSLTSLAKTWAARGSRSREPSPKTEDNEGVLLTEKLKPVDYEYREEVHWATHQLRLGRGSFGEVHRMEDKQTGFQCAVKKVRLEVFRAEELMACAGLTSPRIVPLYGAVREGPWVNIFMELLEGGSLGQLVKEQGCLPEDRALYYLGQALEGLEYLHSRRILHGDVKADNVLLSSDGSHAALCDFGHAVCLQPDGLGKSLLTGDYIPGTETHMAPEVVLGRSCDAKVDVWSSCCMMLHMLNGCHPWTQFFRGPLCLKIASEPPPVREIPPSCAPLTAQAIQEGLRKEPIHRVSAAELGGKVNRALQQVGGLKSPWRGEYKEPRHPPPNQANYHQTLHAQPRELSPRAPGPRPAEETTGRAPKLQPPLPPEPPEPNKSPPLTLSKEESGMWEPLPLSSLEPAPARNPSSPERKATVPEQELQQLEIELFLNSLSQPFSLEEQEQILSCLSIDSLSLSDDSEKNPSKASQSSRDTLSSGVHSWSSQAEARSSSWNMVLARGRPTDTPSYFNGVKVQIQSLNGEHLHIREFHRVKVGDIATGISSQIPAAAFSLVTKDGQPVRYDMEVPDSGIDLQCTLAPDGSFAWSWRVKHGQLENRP

SMILES	IC50 [nM]
O[C@]1(c2cccc(-c3csc(-c4c[nH]c5ncccc45)n3)c2)CCc2cccnc21 [WO2022104348, Example 1]	> 500
O[C@@]1(c2cccc(-c3csc(-c4c[nH]c5ncccc45)n3)c2)CCc2cccnc21 [WO2022104348, Example 2]	< 100
CN1CC[C@](O)(c2cccc(-c3cnc(-c4c[nH]c5ncccc45)s3)c2)C1=O [WO2022104348, Example 4]	> 500
O[C@@]1(c2cccc(-c3csc(-c4c[nH]c5ncncc45)n3)c2)CCc2cccnc21 [WO2022104348, Example 5]	< 100
Cc1cnc2[nH]cc(-c3nc(-c4cccc([C@]5(O)CCN(C)C5=O)c4)cs3)c2c1 [WO2022104348, Example 7]	< 100
CN1CC[C@@](O)(c2cccc(-c3nc(-c4c[nH]c5ncccc45)cs3)c2)C1=O [WO2022104348, Example 8]	< 100
O[C@]1(c2cccc(-c3csc(-c4c[nH]c5ncccc45)n3)c2)Cc2nccn2C1 [WO2022104348, Example 10]	< 100
O[C@]1(c2cccc(-c3csc(-c4c[nH]c5nccnc45)n3)c2)OCc2cccnc21 [WO2022104348, Example 17]	< 100
O[C@@]1(c2cccc(-c3csc(-c4c[nH]c5ncc(C(F)(F)F)cc45)n3)c2)Cc2nccn2C1 [WO2022104348, Example 25]	< 100
N#Cc1cnc2[nH]cc(-c3nc(-c4cccc([C@]5(O)Cc6nccn6C5)c4)cs3)c2c1 [WO2022104348, Example 26]	< 100
O[C@@]1(c2cccc(-c3csc(-c4c[nH]c5ncc(Cl)cc45)n3)c2)Cc2nccn2C1 [WO2022104348, Example 27]	< 100
O[C@@]1(c2cccc(-c3csc(-c4c[nH]c5ncccc45)n3)c2)CCc2scnc21 [WO2022104348, Example 32]	< 100
O[C@@]1(c2cccc(-c3csc(-c4c[nH]c5ncccc45)n3)c2)C=Cc2cccnc21 [WO2022104348, Example 33]	< 100
O[C@]1(c2cccc(-c3csc(-c4c[nH]c5ncccc45)n3)c2)C=Cc2cccnc21 [WO2022104348, Example 34]	> 500
CC1(C)Cc2cccnc2[C@@]1(O)c1cccc(-c2csc(-c3c[nH]c4ncccc34)n2)c1 [WO2022104348, Example 35]	> 500
CC1(C)Cc2cccnc2[C@]1(O)c1cccc(-c2csc(-c3c[nH]c4ncccc34)n2)c1 [WO2022104348, Example 36]	< 100
O[C@]1(c2cccc(-c3csc(-c4c[nH]c5ncccc45)n3)c2)CCCn2ccnc21 [WO2022104348, Example 37]	> 500
O[C@@]1(c2cccc(-c3csc(-c4c[nH]c5ncccc45)n3)c2)CCCn2ccnc21 [WO2022104348, Example 38]	< 100
CN1CC[C@](O)(c2cccc(-c3csc(-c4c[nH]c5ncccc45)n3)c2)C1=O [WO2022104348, Example 39]	> 500
CN1CC[C@@](O)(c2cccc(-c3csc(-c4c[nH]c5ncccc45)n3)c2)C1=O [WO2022104348, Example 40]	< 100
O[C@@]1(c2cccc(-c3csc(-c4c[nH]c5nccnc45)n3)c2)CCn2ccnc21 [WO2022104348, Example 41]	< 100

SMILES	IC50 [nM]
O=C1N(CC(F)(F)F)CC[C@]1(O)c1cccc(-c2csc(-c3c[nH]c4nccnc34)n2)c1 [WO2022104348, Example 43]	> 500
O=C1N(CC(F)(F)F)CC[C@@]1(O)c1cccc(-c2csc(-c3c[nH]c4nccnc34)n2)c1 [WO2022104348, Example 44]	> 500
CN1C[C@@](O)(c2cccc(-c3csc(-c4c[nH]c5nccnc45)n3)c2)C1=O [WO2022104348, Example 45]	> 500
CN1C[C@](O)(c2cccc(-c3csc(-c4c[nH]c5nccnc45)n3)c2)C1=O [WO2022104348, Example 46]	> 500
COc1cnc2[nH]cc(-c3nc(-c4cccc([C@]5(O)CCN(C)C5=O)c4)cs3)c2c1 [WO2022104348, Example 49]	< 100
CN1CC[C@@](O)(c2cccc(-c3nc(-c4c[nH]c5ncccc45)sc3CO)c2)C1=O [WO2022104348, Example 50]	< 100
CN1CC[C@@](O)(c2cccc(-c3csc(-c4c[nH]c5ncc(C(=O)O)cc45)n3)c2)C1=O [WO2022104348, Example 51]	< 100
CN1CC[C@@](O)(c2cccc(-c3csc(-c4c[nH]c5ncncc45)n3)c2)C1=O [WO2022104348, Example 53]	< 100
CN1CCC[C@](O)(c2cccc(-c3csc(-c4c[nH]c5nccnc45)n3)c2)C1=O [WO2022104348, Example 55]	> 500
Cc1sc(-c2c[nH]c3nccnc23)nc1-c1cccc([C@]2(O)CCN(C)C2=O)c1 [WO2022104348, Example 66]	< 100
Cc1ccc([C@]2(O)CCN(C)C2=O)cc1-c1csc(-c2c[nH]c3nccnc23)n1 [WO2022104348, Example 67]	< 100
Cc1cc(-c2csc(-c3c[nH]c4nccnc34)n2)cc([C@]2(O)CCN(C)C2=O)c1 [WO2022104348, Example 68]	< 100
Cc1ccc(-c2csc(-c3c[nH]c4nccnc34)n2)cc1[C@@]1(O)CCN(C)C1=O [WO2022104348, Example 70]	> 500
O[C@@]1(c2cccc(-c3csc(-c4n[nH]c5cccnc45)n3)c2)CCn2ccnc21 [WO2022104348, Example 75]	≤ 500
C[C@@](O)(c1cccc(-c2csc(-c3c[nH]c4nccnc34)n2)c1)c1ncc[nH]1 [WO2022104348, Example 77]	> 500
C[C@](O)(c1cccc(-c2csc(-c3c[nH]c4nccnc34)n2)c1)c1ncc[nH]1 [WO2022104348, Example 78]	> 500
Cn1ccnc1[C@@](C)(O)c1cccc(-c2csc(-c3c[nH]c4ncccc34)n2)c1 [WO2022104348, Example 79]	> 500
C[C@@](O)(c1cccc(-c2csc(-c3c[nH]c4ncccc34)n2)c1)c1ncc[nH]1 [WO2022104348, Example 80]	> 500
Cc1cnc2[nH]cc(-c3nc(-c4cccc([C@@]5(O)CCn6ccnc65)c4)cs3)c2n1 [WO2022104348, Example 81]	< 100
Cc1cnc2c(-c3nc(-c4cccc([C@]5(O)CCn6ccnc65)c4)cs3)c[nH]c2n1 [WO2022104348, Example 83]	< 100
O[C@@]1(c2cccc(-c3csc(-c4c[nH]c5ncccc45)n3)c2)COc2cccnc21 [WO2022104348, Example 85]	> 500

SMILES	IC50 [nM]
O[C@@]1(c2cccc(-c3csc(-c4c[nH]c5nccnc45)n3)c2)COc2cccnc21 [WO2022104348, Example 86]	> 500
Cc1ccnc2[nH]cc(-c3nc(-c4cccc([C@]5(O)CCn6ccnc65)c4)cs3)c12 [WO2022104348, Example 87]	< 100
O[C@@]1(c2cccc(-c3csc(-c4c[nH]c5nnccc45)n3)c2)CCn2ccnc21 [WO2022104348, Example 88]	< 100
O=C1Nc2cccnc2[C@]1(O)c1cccc(-c2csc(-c3c[nH]c4ncccc34)n2)c1 [WO2022104348, Example 89]	> 500
O=C1Nc2cccnc2[C@@]1(O)c1cccc(-c2csc(-c3c[nH]c4ncccc34)n2)c1 [WO2022104348, Example 90]	> 500
CN1C(=O)[C@@](O)(c2cccc(-c3csc(-c4c[nH]c5ncccc45)n3)c2)c2ncccc21 [WO2022104348, Example 91]	> 500
CN1C(=O)[C@](O)(c2cccc(-c3csc(-c4c[nH]c5ncccc45)n3)c2)c2ncccc21 [WO2022104348, Example 92]	< 100
CN1CC[C@@](O)(c2cccc(-c3coc(-c4c[nH]c5ncccc45)c3)c2)C1=O [WO2022104348, Example 93]	< 100
CN1CC[C@@](O)(c2cccc(-c3csc(-c4c[nH]c5ncc(F)c(F)c45)n3)c2)C1=O [WO2022104348, Example 94]	< 100
CN1CC[C@@](O)(c2cccc(-c3csc(-c4c[nH]c5ncc(Cl)c(F)c45)n3)c2)C1=O [WO2022104348, Example 95]	< 100
O[C@@]1(c2cccc(-c3csc(-c4c[nH]c5ncc(F)c(F)c45)n3)c2)CCn2ccnc21 [WO2022104348, Example 96]	< 100
O[C@@]1(c2cccc(-c3csc(-c4c[nH]c5ncc(Cl)c(F)c45)n3)c2)CCn2ccnc21 [WO2022104348, Example 97]	< 100
CN1CC[C@@](O)(c2cccc(-c3nc(-c4c[nH]c5ncccc45)sc3C#N)c2)C1=O [WO2022104348, Example 98]	> 500
CN1CC[C@@](O)(c2cccc(-c3nc(-c4c[nH]c5ncccc45)sc3F)c2)C1=O [WO2022104348, Example 99]	< 100
CN1CC[C@@](O)(c2cccc(-c3csc(-c4n[nH]c5ncccc45)n3)c2)C1=O [WO2022104348, Example 100]	> 500
O[C@H]1C[C@](O)(c2cccc(-c3csc(-c4c[nH]c5ncccc45)n3)c2)c2ncccc21 [WO2022104348, Example 102]	> 500
O[C@H]1C[C@@](O)(c2cccc(-c3csc(-c4c[nH]c5ncccc45)n3)c2)c2ncccc21 [WO2022104348, Example 103]	> 500
O[C@@H]1C[C@](O)(c2cccc(-c3csc(-c4c[nH]c5ncccc45)n3)c2)c2ncccc21 [WO2022104348, Example 104]	> 500
C[C@]1(O)C[C@](O)(c2cccc(-c3csc(-c4c[nH]c5ncccc45)n3)c2)c2ncccc21 [WO2022104348, Example 105]	> 500
